The values that follow come from patent US11987586B1 (TAKEDA PHARMACEUTICAL COMPANY LIMITED, priority 2022, dated 2024).

The target in this assay is T1, human OX2 receptor (Homo sapiens, UniProt O43614).
T1 construct: expressed in transfected cells
T1 sequence (O43614 1-444): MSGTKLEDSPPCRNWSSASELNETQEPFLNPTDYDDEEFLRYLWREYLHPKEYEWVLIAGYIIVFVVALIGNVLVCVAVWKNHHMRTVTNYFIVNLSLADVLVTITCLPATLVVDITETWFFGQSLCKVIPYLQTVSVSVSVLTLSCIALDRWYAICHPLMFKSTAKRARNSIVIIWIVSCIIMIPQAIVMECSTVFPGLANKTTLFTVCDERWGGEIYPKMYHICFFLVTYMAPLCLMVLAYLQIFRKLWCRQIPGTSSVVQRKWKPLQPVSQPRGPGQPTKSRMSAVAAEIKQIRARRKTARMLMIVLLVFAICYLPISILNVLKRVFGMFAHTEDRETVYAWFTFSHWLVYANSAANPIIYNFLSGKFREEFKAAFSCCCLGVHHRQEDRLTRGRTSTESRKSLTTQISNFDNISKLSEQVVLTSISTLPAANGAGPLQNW
Nature of the assay: Measurement of orexin type 2 receptor agonist activity (calcium fluorescence, Fluo-4, FDSS). The format is cell-based. The note with it: 3 uM test compound; CHO cells expressing human OX2 receptor; DMSO = 0%, 10 nM orexin A (human) = 100%. The procedure, abridged: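 CHO-K1 cells stably expressing human OX2 receptor (residues 1-444) were loaded with Fluo-4 AM plus probenecid. Calcium fluorescence after compound addition was recorded for 1 min 40 s. Activity (%) was scaled between DMSO (0%) and 10 nM orexin A final (100%).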
As to `COCc1cc(-c2c(F)cc(F)cc2F)c2c(N3CC[C@H]4N(C[C@@H](NS(=O)(=O)C5CC5)C4(F)F)C3=O)noc2c1` [Example 222, N-{(4aR,6R)-5,5-difluoro-2-[6-(methoxymethyl)-4-(2,4,6-trifluorophenyl)-1,2-benzoxazol-3-yl]-1-oxooctahydropyrrolo[1,2-c]pyrimidin-6-yl}cyclopropanesulfonamide], the “OX2R agonist activity (3 uM, %)” value is reported as 107%.
`CS(=O)(=O)N[C@@H]1CN2C(=O)N(c3noc4cccc(-c5ccccc5)c34)CC[C@@H]2C1(F)F` [Example 223, N-[(4aR,6R)-5,5-difluoro-1-oxo-2-(4-phenyl-1,2-benzoxazol-3-yl)octahydropyrrolo[1,2-c]pyrimidin-6-yl]methanesulfonamide]: the “OX2R agonist activity (3 uM, %)” value worked out at 104%.
In the case of `CS(=O)(=O)N[C@@H]1CN2C(=O)N(c3noc4cc(Br)cc(-c5c(F)cccc5F)c34)CC[C@@H]2C1(F)F` [Example 224, N-{(4aR,6R)-2-[6-bromo-4-(2,6-difluorophenyl)-1,2-benzoxazol-3-yl]-5,5-difluoro-1-oxooctahydropyrrolo[1,2-c]pyrimidin-6-yl}methanesulfonamide] it was 109%; in that of `CS(=O)(=O)N[C@@H]1CN2C(=O)N(c3noc4cc(C(F)(F)F)cc(-c5c(F)cc(F)cc5F)c34)CC[C@@H]2C1(F)F` [Example 225, N-{(4aR,6R)-5,5-difluoro-1-oxo-2-[6-(trifluoromethyl)-4-(2,4,6-trifluorophenyl)-1,2-benzoxazol-3-yl]octahydropyrrolo[1,2-c]pyrimidin-6-yl}methanesulfonamide], 106%; in that of `COCc1cc2onc(-n3cc4n(c3=O)C[C@@H](NS(C)(=O)=O)C4(F)F)c2c(-c2c(F)cccc2F)c1F` [Example 226, N-{(6R)-2-[4-(2,6-difluorophenyl)-5-fluoro-6-(methoxymethyl)-1,2-benzoxazol-3-yl]-7,7-difluoro-3-oxo-2,5,6,7-tetrahydro-3H-pyrrolo[1,2-c]imidazol-6-yl}methanesulfonamide], 93%.
In the case of `COCc1cc2onc(N3CC[C@H]4N(C[C@@H](NS(C)(=O)=O)C4(F)F)C3=O)c2c(-c2c(F)cc(F)cc2F)c1F` [Example 227, N-{(4aR,6R)-5,5-difluoro-2-[5-fluoro-6-(methoxymethyl)-4-(2,4,6-trifluorophenyl)-1,2-benzoxazol-3-yl]-1-oxooctahydropyrrolo[1,2-c]pyrimidin-6-yl}methanesulfonamide] it was 98%; in that of `CCOc1cc2onc(N3CC[C@H]4N(C[C@@H](NS(C)(=O)=O)C4(F)F)C3=O)c2c(-c2c(F)cccc2F)c1F` [Example 228, N-{(4aR,6R)-2-[4-(2,6-difluorophenyl)-6-ethoxy-5-fluoro-1,2-benzoxazol-3-yl]-5,5-difluoro-1-oxooctahydropyrrolo[1,2-c]pyrimidin-6-yl}methanesulfonamide], 102%.
In the case of `Cc1cc2onc(-n3cc4n(c3=O)C[C@@H](NS(C)(=O)=O)C4(F)F)c2c(-c2c(F)cc(F)cc2F)n1` [Example 229, N-{(6R)-7,7-difluoro-2-[6-methyl-4-(2,4,6-trifluorophenyl)[1,2]oxazolo[4,5-c]pyridin-3-yl]-3-oxo-2,5,6,7-tetrahydro-3H-pyrrolo[1,2-c]imidazol-6-yl}methanesulfonamide] it was 113%.
On to `CCc1cc(-c2c(F)cc(F)cc2F)c2c(-n3cc4n(c3=O)C[C@@H](NS(C)(=O)=O)C4(F)F)noc2n1` [Example 230, N-{(6R)-2-[6-ethyl-4-(2,4,6-trifluorophenyl)[1,2]oxazolo[5,4-b]pyridin-3-yl]-7,7-difluoro-3-oxo-2,5,6,7-tetrahydro-3H-pyrrolo[1,2-c]imidazol-6-yl}methanesulfonamide], for which the “OX2R agonist activity (3 uM, %)” value came out at 111%.
Consider `CCS(=O)(=O)N[C@@H]1CN2C(=O)N(c3noc4cc(COC)cc(-c5c(F)cc(F)cc5F)c34)CC[C@@H]2C1(F)F` [Example 232, N-{(4aR,6R)-5,5-difluoro-2-[6-(methoxymethyl)-4-(2,4,6-trifluorophenyl)-1,2-benzoxazol-3-yl]-1-oxooctahydropyrrolo[1,2-c]pyrimidin-6-yl}ethanesulfonamide], for which the “OX2R agonist activity (3 uM, %)” value is reported as 107%.
Regarding `Cc1cc2onc(N3CC[C@H]4N(C[C@@H](NS(=O)(=O)C5CC5)C4(F)F)C3=O)c2c(-c2c(F)cc(F)cc2F)n1` [Example 233, N-{(4aR,6R)-5,5-difluoro-2-[6-methyl-4-(2,4,6-trifluorophenyl)[1,2]oxazolo[4,5-c]pyridin-3-yl]-1-oxooctahydropyrrolo[1,2-c]pyrimidin-6-yl}cyclopropanesulfonamide], the “OX2R agonist activity (3 uM, %)” value came to 109%.
As for `O=C1N(c2noc3ccc(F)c(-c4c(F)cc(F)cc4F)c23)CC[C@H]2N1C[C@@H](NS(=O)(=O)C1CC1)C2(F)F` [Example 234, N-{(4aR,6R)-5,5-difluoro-2-[5-fluoro-4-(2,4,6-trifluorophenyl)-1,2-benzoxazol-3-yl]-1-oxooctahydropyrrolo[1,2-c]pyrimidin-6-yl}cyclopropanesulfonamide], the “OX2R agonist activity (3 uM, %)” value turned out to be 111%.
For the molecule `CCS(=O)(=O)N[C@@H]1CN2C(=O)N(c3noc4nccc(-c5c(F)cc(F)cc5F)c34)CC[C@@H]2C1(F)F` [Example 235, N-{(4aR,6R)-5,5-difluoro-1-oxo-2-[4-(2,4,6-trifluorophenyl)[1,2]oxazolo[5,4-b]pyridin-3-yl]octahydropyrrolo[1,2-c]pyrimidin-6-yl}ethanesulfonamide], the “OX2R agonist activity (3 uM, %)” value stood at 113%.
On to `O=C1N(c2noc3cc(F)cc(-c4c(F)cc(F)cc4F)c23)CC[C@H]2N1C[C@@H](NS(=O)(=O)CF)C2(F)F` [Example 236, N-{(4aR,6R)-5,5-difluoro-2-[6-fluoro-4-(2,4,6-trifluorophenyl)-1,2-benzoxazol-3-yl]-1-oxooctahydropyrrolo[1,2-c]pyrimidin-6-yl}-1-fluoromethanesulfonamide], for which the “OX2R agonist activity (3 uM, %)” value was determined as 108%.
The result for `CS(=O)(=O)N[C@@H]1CN2C(=O)N(c3noc4nccc(-c5c(F)cc(F)cc5F)c34)CC[C@@H]2C1(F)F` [Example 237, N-{(4aR,6R)-5,5-difluoro-1-oxo-2-[4-(2,4,6-trifluorophenyl)[1,2]oxazolo[5,4-b]pyridin-3-yl]octahydropyrrolo[1,2-c]pyrimidin-6-yl}methanesulfonamide] reads 110%.
For the molecule `COCc1cc2onc(N3CC[C@H]4N(C[C@@H](NS(C)(=O)=O)C4(F)F)C3=O)c2c(-c2c(F)cccc2F)c1F` [Example 238, N-{(4aR,6R)-2-[4-(2,6-difluorophenyl)-5-fluoro-6-(methoxymethyl)-1,2-benzoxazol-3-yl]-5,5-difluoro-1-oxooctahydropyrrolo[1,2-c]pyrimidin-6-yl}methanesulfonamide], the “OX2R agonist activity (3 uM, %)” value is reported as 106%.
Turning to `CCS(=O)(=O)N[C@@H]1Cn2c(cn(-c3noc4cc(COC)c(F)c(-c5c(F)cc(F)cc5F)c34)c2=O)C1(F)F` [Example 239, N-{(6R)-7,7-difluoro-2-[5-fluoro-6-(methoxymethyl)-4-(2,4,6-trifluorophenyl)-1,2-benzoxazol-3-yl]-3-oxo-2,5,6,7-tetrahydro-3H-pyrrolo[1,2-c]imidazol-6-yl}ethanesulfonamide], the “OX2R agonist activity (3 uM, %)” value is 95%.
In the case of `CS(=O)(=O)N[C@@H]1CN2C(=O)N(c3noc4ccc(F)c(-c5c(F)cc(F)cc5F)c34)CC[C@@H]2C1(F)F` [Example 241, N-{(4aR,6R)-5,5-difluoro-2-[5-fluoro-4-(2,4,6-trifluorophenyl)-1,2-benzoxazol-3-yl]-1-oxooctahydropyrrolo[1,2-c]pyrimidin-6-yl}methanesulfonamide] it was 100%; in that of `O=C1N(c2noc3cccc(-c4c(F)cc(F)cc4F)c23)CC[C@H]2N1C[C@@H](NS(=O)(=O)C1CC1)C2(F)F` [Example 242, N-{(4aR,6R)-5,5-Difluoro-1-oxo-2-[4-(2,4,6-trifluorophenyl)-1,2-benzoxazol-3-yl]octahydropyrrolo[1,2-c]pyrimidin-6-yl}cyclopropanesulfonamide], 105%.
The result for `COCc1cc2onc(-n3cc4n(c3=O)C[C@@H](NS(C)(=O)=O)C4(F)F)c2c(-c2c(F)cc(F)cc2F)c1F` [Example 244, N-{(6R)-7,7-difluoro-2-[5-fluoro-6-(methoxymethyl)-4-(2,4,6-trifluorophenyl)-1,2-benzoxazol-3-yl]-3-oxo-2,5,6,7-tetrahydro-3H-pyrrolo[1,2-c]imidazol-6-yl}methanesulfonamide] reads 89%; that for `CCS(=O)(=O)N[C@@H]1CN2C(=O)N(c3noc4cc(F)cc(-c5c(F)cccc5F)c34)CC[C@@H]2C1(F)F` [Example 247, N-{(4aR,6R)-2-[4-(2,6-difluorophenyl)-6-fluoro-1,2-benzoxazol-3-yl]-5,5-difluoro-1-oxooctahydropyrrolo[1,2-c]pyrimidin-6-yl}ethanesulfonamide], 101%.
The result for `Cc1cc2onc(N3CC[C@H]4N(C[C@@H](NS(C)(=O)=O)C4(F)F)C3=O)c2c(-c2c(F)cc(F)cc2F)n1` [Example 248, N-{(4aR,6R)-5,5-difluoro-2-[6-methyl-4-(2,4,6-trifluorophenyl)[1,2]oxazolo[4,5-c]pyridin-3-yl]-1-oxooctahydropyrrolo[1,2-c]pyrimidin-6-yl}methanesulfonamide] reads 107%.
